From patent US12564590B2, “Combinations of menin inhibitors and CYP3A4 inhibitors and methods of use thereof” (Syndax Pharmaceuticals, Inc., priority 2020, dated 2026)

What was measured:
[1] = target: T1, MLL1 binding pocket on menin (Homo sapiens, UniProt O00255); test: binding to the MLL1 binding pocket on menin
T1 sequence (O00255 1-610): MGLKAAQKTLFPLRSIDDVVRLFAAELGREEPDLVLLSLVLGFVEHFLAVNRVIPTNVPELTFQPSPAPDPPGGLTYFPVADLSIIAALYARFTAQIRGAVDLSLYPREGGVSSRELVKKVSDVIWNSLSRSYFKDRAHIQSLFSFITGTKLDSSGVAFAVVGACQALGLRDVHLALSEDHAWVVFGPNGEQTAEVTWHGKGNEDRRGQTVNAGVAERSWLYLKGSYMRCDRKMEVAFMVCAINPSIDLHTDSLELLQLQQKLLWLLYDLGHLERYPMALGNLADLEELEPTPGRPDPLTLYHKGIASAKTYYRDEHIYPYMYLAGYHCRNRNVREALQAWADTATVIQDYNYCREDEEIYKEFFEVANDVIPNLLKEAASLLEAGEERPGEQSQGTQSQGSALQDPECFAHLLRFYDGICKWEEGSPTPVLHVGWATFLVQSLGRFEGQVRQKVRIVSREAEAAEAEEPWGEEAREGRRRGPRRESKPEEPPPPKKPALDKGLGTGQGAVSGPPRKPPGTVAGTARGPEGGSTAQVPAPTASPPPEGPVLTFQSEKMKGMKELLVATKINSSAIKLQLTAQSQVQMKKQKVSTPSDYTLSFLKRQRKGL

[2] = system: cells harboring MLLr fusions; test: activity in cells harboring MLLr fusions; type: cell-based
[3] = system: leukemic xenograft models; test: leukemic xenograft / nonclinical survival models; type: in vivo; settings: in combination with a CYP3A4 inhibitor; for survival benefit in nonclinical models: oral dosing
[4] = system: NPM1c mutant AML patient-derived xenograft models; settings: orally active; cited from earlier work
NPM1c cells = settings: leading to growth arrest, terminal differentiation and cell death; cited from earlier work

CC(C)N(C(=O)c1cc(F)ccc1Oc1cncnc1N1CC2(CCN(C[C@H]3CC[C@H](NS(C)(=O)=O)CC3)CC2)C1)C(C)C [Formula I, 5-fluoro-N,N-diisopropyl-2-((4-(7-(((1r,4r)-4-(methylsulfonamido)cyclohexyl)methyl)-2,7-diazaspiro[3.5]nonan-2-yl)pyrimidin-5-yl)oxy)benzamide]
binding affinity to the MLL1 binding pocket on menin [1]: high affinity | activity across a range of cells harboring MLLr fusions [2]: displays activity | activity in multiple leukemic xenograft models [3]: robust activity | survival benefit in nonclinical models [3]: profound survival benefit

CCN(C(=O)c1cc(F)ccc1Oc1cncnc1N1CC2(CCN(C[C@H]3CC[C@H](NS(=O)(=O)CC)CC3)CC2)C1)C(C)C [Formula II, N-ethyl-2-((4-(7-(((1r,4r)-4-(ethylsulfonamido)cyclohexyl)methyl)-2,7-diazaspiro[3.5]nonan-2-yl)pyrimidin-5-yl)oxy)-5-fluoro-N-isopropylbenzamide]
binding affinity to the MLL1 binding pocket on menin [1]: high affinity | activity across a range of cells harboring MLLr fusions [2]: displays activity | activity in multiple leukemic xenograft models [3]: robust activity | survival benefit in nonclinical models [3]: profound survival benefit

CNc1nc(NC2CCN(Cc3ccc4c(cc(C#N)n4C[C@H](C)N4CCN(S(C)(=O)=O)CC4)c3C)CC2)c2cc(CC(F)(F)F)sc2n1 [KO-539]
anti-leukemic activity [4]: robust anti-leukemic activity

Cc1c(CN2CCC(Nc3ncnc4sc(CC(F)(F)F)cc34)CC2)ccc2c1cc(C#N)n2Cc1cn[nH]c1 [MI-503]
effect on HOXA MEIS1 transcription program (NPM1c cells): suppress the HOXA MEIS1 transcription program
